The source of these data is PubChem BioAssay (NCI).

Test systems include NCI-H23 lung; U251 CNS; UACC-257 melanoma; HT29 colon; RPMI-8226 leukemia; NCI/ADR-RES ovarian; DU-145 prostate; HL-60(TB) leukemia; HCT-116 colon; SNB-75 CNS.
Common to all, as to assay: NCI-60 cell line screen, 48 h

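Exposure lasted 48 hours, with cells grown in 96-well plates and compounds tested at five concentrations. TGI denotes the concentration required for complete inhibition of growth.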

In the case of `Cc1ccc(C(=O)Nc2ccc(S(=O)(=O)O)c3cc(S(=O)(=O)O)cc(S(=O)(=O)O)c23)cc1NC(=O)c1cccc(NC(=O)Nc2cccc(C(=O)Nc3cc(C(=O)Nc4ccc(S(=O)(=O)O)c5cc(S(=O)(=O)O)cc(S(=O)(=O)O)c45)ccc3C)c2)c1` (tested in a mixture with another compound), the TGI with NCI-H23 lung, in the experiment with U251 CNS, with UACC-257 melanoma, in the experiment with HT29 colon, in the experiment on RPMI-8226 leukemia and in the experiment on NCI/ADR-RES ovarian was greater than 50 µM each time. Also, the TGI with DU-145 prostate, with HL-60(TB) leukemia, in the experiment on HCT-116 colon and with SNB-75 CNS was greater than 50 µM each time.
On to `O=C(OCCC12CC3CC(CC(C3)C1)C2)c1ccc(NCc2cc(O)ccc2O)cc1`, for which the TGI in the experiment with NCI-H23 lung came out at 3.28 µM; with U251 CNS, 2.95 µM; in the experiment with UACC-257 melanoma it was 2.38 µM; with HT29 colon, 10.6 µM; in the experiment with RPMI-8226 leukemia it was 0.666 µM; in the experiment with NCI/ADR-RES ovarian, 11.1 µM. Moreover, the TGI in the experiment on DU-145 prostate was 13.7 µM; in the experiment with HL-60(TB) leukemia it was 0.853 µM; in the experiment with HCT-116 colon it was 5.68 µM; in the experiment with SNB-75 CNS it was 2.99 µM.
Take `C#CCn1c(=O)c(Cl)cn(/C(=C/C(=O)OCC)C(=O)OCC)c1=O`: the TGI with NCI-H23 lung is 42.6 µM; with U251 CNS, 35 µM; with UACC-257 melanoma, 33.3 µM; with HT29 colon, 39.5 µM; with RPMI-8226 leukemia it was 5.28 µM; with NCI/ADR-RES ovarian, greater than 79.3 µM. The TGI in the experiment with DU-145 prostate is 33 µM; in the experiment on HL-60(TB) leukemia, 8.21 µM; in the experiment on HCT-116 colon it was 14.4 µM; in the experiment on SNB-75 CNS, 34.2 µM.
On to `COC(=O)[C@H](Cc1ccccc1)NP(=O)(O)OCC1C=CC(n2cc(C)c(=O)[nH]c2=O)O1` (stereo not given in full), for which the TGI with NCI-H23 lung, in the experiment on U251 CNS, in the experiment on UACC-257 melanoma, in the experiment with HT29 colon, in the experiment on RPMI-8226 leukemia and with NCI/ADR-RES ovarian was greater than 100 µM in each case. For the same molecule, the TGI with DU-145 prostate, in the experiment with HL-60(TB) leukemia, in the experiment on HCT-116 colon and in the experiment on SNB-75 CNS was greater than 100 µM in each case.
With `C#CC(O)/C=C/C(O)CCCC(O)CC#CC(O)C#CC(O)CCCC(O)/C=C/CCCC(=O)CCCCCCCCCCCCCCCC(O)C(O)C#CC(=O)O` (stereo not given), the TGI in the experiment on NCI-H23 lung, in the experiment on U251 CNS, with UACC-257 melanoma, in the experiment with HT29 colon, with RPMI-8226 leukemia and in the experiment on NCI/ADR-RES ovarian was greater than 50 µM in each case. Besides, the TGI was greater than 50 µM with DU-145 prostate, 27.4 µM in the experiment on HL-60(TB) leukemia, greater than 50 µM with HCT-116 colon and greater than 50 µM in the experiment with SNB-75 CNS.
For the molecule `Cc1nnc(-n2c(O)cc(=O)n(-c3ccccc3)c2=S)nc1/C=C/c1ccc(N(C)C)cc1`, the TGI was 69.4 µM with NCI-H23 lung; greater than 46.4 µM with U251 CNS; greater than 55.8 µM in the experiment with UACC-257 melanoma; greater than 100 µM in the experiment with HT29 colon; greater than 100 µM in the experiment on RPMI-8226 leukemia; greater than 100 µM in the experiment with NCI/ADR-RES ovarian. Further, the TGI is greater than 90.1 µM with DU-145 prostate, 7.1 µM in the experiment with HL-60(TB) leukemia, greater than 55.7 µM in the experiment with HCT-116 colon and 21.1 µM with SNB-75 CNS.
Consider `COc1ccccc1NC(=O)O/N=C(/Cl)C(C)C`, for which the TGI in the experiment with NCI-H23 lung was determined as 28.8 µM; in the experiment on U251 CNS it was 30.6 µM; in the experiment on UACC-257 melanoma, 26.8 µM; with HT29 colon it was 15.3 µM; in the experiment on RPMI-8226 leukemia it was 4.71 µM; in the experiment with NCI/ADR-RES ovarian, 35.5 µM. The TGI came out at 33.2 µM in the experiment on DU-145 prostate, 3.6 µM in the experiment with HL-60(TB) leukemia, 29.3 µM with HCT-116 colon and 27.1 µM in the experiment on SNB-75 CNS.
`O=c1cc(N=Nc2ccc(Cl)cc2)[nH]c(=O)[nH]1`: the TGI came out at 14.1 µM in the experiment with NCI-H23 lung; 12.6 µM in the experiment on U251 CNS; 10.6 µM in the experiment on UACC-257 melanoma; 5.44 µM with HT29 colon; 12 µM in the experiment on RPMI-8226 leukemia; 12.5 µM in the experiment on NCI/ADR-RES ovarian. Besides, the TGI with DU-145 prostate was 22.6 µM; with HL-60(TB) leukemia, 3.89 µM; in the experiment with HCT-116 colon, 3.87 µM; in the experiment with SNB-75 CNS, 22.1 µM.
With `CC(NC(=O)C(N)CC(=O)O)NC(=O)N(C)C(C)(C)C` (stereo not given), the TGI in the experiment with NCI-H23 lung, in the experiment with U251 CNS, with UACC-257 melanoma, in the experiment on HT29 colon, in the experiment with RPMI-8226 leukemia and in the experiment with NCI/ADR-RES ovarian was greater than 100 µM throughout. Also, the TGI in the experiment with DU-145 prostate, in the experiment with HL-60(TB) leukemia, in the experiment with HCT-116 colon and with SNB-75 CNS was greater than 100 µM in each case.
As for `CC(C)C1CC[C@H](C)C[C@@H]1OC(=O)C(C(=O)O[C@H]1C[C@@H](C)CCC1C(C)C)C(O)[C@@H]1OC(C)(C)O[C@H]1C1COC(C)(C)O1` (stereo not given in full), the TGI with NCI-H23 lung came to 31.9 µM; in the experiment with U251 CNS it was 27.2 µM; in the experiment with UACC-257 melanoma, 78.2 µM; with HT29 colon it was 32.2 µM; with RPMI-8226 leukemia it was 44.6 µM; in the experiment with NCI/ADR-RES ovarian it was 45.4 µM. Further, the TGI in the experiment with DU-145 prostate is 44.5 µM; in the experiment with HL-60(TB) leukemia it was 42.2 µM; in the experiment with HCT-116 colon it was 23.9 µM; in the experiment with SNB-75 CNS, 53 µM.
Turning to `Nn1c(Cc2ccccc2)n[nH]c1=O`, the TGI in the experiment on NCI-H23 lung, with U251 CNS, in the experiment on UACC-257 melanoma, in the experiment on HT29 colon, in the experiment on RPMI-8226 leukemia and in the experiment on NCI/ADR-RES ovarian was greater than 100 µM throughout. The TGI in the experiment on DU-145 prostate, with HL-60(TB) leukemia, in the experiment with HCT-116 colon and in the experiment on SNB-75 CNS was greater than 100 µM each time.
Take `O=[N+]([O-])c1c2nc3n(c2cc2c1nc1n2CCC1)CCC3`: the TGI with NCI-H23 lung, with U251 CNS, with UACC-257 melanoma, with HT29 colon, with RPMI-8226 leukemia and in the experiment with NCI/ADR-RES ovarian was greater than 100 µM each time. Also, the TGI in the experiment on DU-145 prostate, in the experiment on HL-60(TB) leukemia, with HCT-116 colon and with SNB-75 CNS was greater than 100 µM in each case.
For the molecule `C=C(C(=O)OC)c1cc2ccccc2n1S(=O)(=O)c1ccccc1`, the TGI in the experiment on NCI-H23 lung is 11.5 µM; with U251 CNS it was 5.12 µM; with UACC-257 melanoma, 18.7 µM; in the experiment with HT29 colon, 24.9 µM; in the experiment with RPMI-8226 leukemia, 5.43 µM; in the experiment with NCI/ADR-RES ovarian it was 18.7 µM. The TGI with DU-145 prostate is 8.51 µM; in the experiment on HL-60(TB) leukemia it was 10.2 µM; in the experiment on HCT-116 colon it was greater than 34.4 µM; in the experiment on SNB-75 CNS, 14.5 µM.
